The source of these data is patent US7470815B1, “Selective neuronal nitric oxide synthase inhibitors” (Northwestern University, priority 2006, dated 2008).

Molecules are shown by their SMILES. Non-standard residues stand in square brackets, D forms with d. Residues, ends and D or L forms follow the SMILES beside them. dArg(NO2) = N=C(NCCC[C@@H](N)C(=O)O)N[N+](=O)[O-]

Test [1] addresses T1, recombinant rat nNOS (Rattus norvegicus, UniProt P29476).
T1 construct: made in house; host or cells: E. coli
In words: NOS hemoglobin capture assay, inhibition of nNOS. Type of test: biochemical. The settings on record: Dixon analysis and method of Cornish and Bowden.

The target of test [2] is T1, recombinant rat nNOS. Conditions: prior art compound; cited from earlier work.

Turning to `N=C(NCCC[C@H](N)CNc1ccccc1CCN)N[N+](=O)[O-]` [Compound 26, N-(4S)-{4-Amino-5-[2-(2-aminoethyl)phenylamino]-pentyl}-N′-nitroguanidine], in test [1], the “type of inhibition of nNOS” value was “competitive inhibition”.
As to `COC(=O)[C@@H](CCCN=C(N)N[N+](=O)[O-])NC(=O)[C@H](N)Cc1ccccc1` [D-Phe-D-Arg^NO2-OMe] (H-[dF]-[dArg(NO2)]-OMe), in test [2], the “selectivity for nNOS over iNOS” value is 1800 fold.
